Experimental data published in patent US20210070748A1, “INHIBITORS OF BRUTONS TYROSINE KINASE” (Pharmacyclics LLC, priority 2015, published 2021).

Assays:
Format in all cases: biochemical
SRC = SRC (Homo sapiens, UniProt P12931); assay: Inhibition of a panel of kinases, in vitro HotSpot kinase assay: SRC; conditions: D-compounds panel data; 1 μM ATP
Experimental: (§1) The degree of inhibition of a panel of kinases is determined using the in vitro HotSpot kinase assay (purified enzymes, ^33P-ATP, an appropriate substrate and 1 μM ATP).

TEC = biological target: T1, TEC (Homo sapiens, UniProt P42680); assay: Inhibition of a panel of kinases, in vitro HotSpot kinase assay: TEC; conditions: D-compounds panel data; 1 μM ATP
T1 sequence (P42680 1-631): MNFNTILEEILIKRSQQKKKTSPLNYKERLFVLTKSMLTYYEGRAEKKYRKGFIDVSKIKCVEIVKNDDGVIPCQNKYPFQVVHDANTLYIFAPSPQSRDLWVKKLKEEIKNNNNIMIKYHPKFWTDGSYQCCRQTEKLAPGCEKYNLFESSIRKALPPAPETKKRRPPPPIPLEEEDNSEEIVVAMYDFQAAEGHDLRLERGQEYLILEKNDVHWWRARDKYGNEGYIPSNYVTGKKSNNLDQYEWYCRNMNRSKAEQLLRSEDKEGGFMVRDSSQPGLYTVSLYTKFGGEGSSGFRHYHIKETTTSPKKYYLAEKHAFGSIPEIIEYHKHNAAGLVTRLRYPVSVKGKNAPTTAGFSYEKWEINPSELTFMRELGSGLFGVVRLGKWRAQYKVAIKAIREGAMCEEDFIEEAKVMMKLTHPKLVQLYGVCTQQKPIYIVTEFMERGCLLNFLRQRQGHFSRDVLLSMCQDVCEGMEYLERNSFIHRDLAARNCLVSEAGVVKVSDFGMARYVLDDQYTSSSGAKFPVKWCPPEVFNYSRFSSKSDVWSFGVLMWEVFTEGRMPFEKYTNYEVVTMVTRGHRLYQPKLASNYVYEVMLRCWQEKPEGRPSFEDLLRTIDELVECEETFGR
Experimental: as §1

EGFR = EGFR (Homo sapiens, UniProt P00533); assay: Inhibition of a panel of kinases, in vitro HotSpot kinase assay: EGFR; conditions: D-compounds panel data; 1 μM ATP
Experimental: as §1

ITK = biological target: T2, ITK (Homo sapiens, UniProt Q08881); assay: Inhibition of a panel of kinases, in vitro HotSpot kinase assay: ITK; conditions: D-compounds panel data; 1 μM ATP
T2 sequence (Q08881 1-620): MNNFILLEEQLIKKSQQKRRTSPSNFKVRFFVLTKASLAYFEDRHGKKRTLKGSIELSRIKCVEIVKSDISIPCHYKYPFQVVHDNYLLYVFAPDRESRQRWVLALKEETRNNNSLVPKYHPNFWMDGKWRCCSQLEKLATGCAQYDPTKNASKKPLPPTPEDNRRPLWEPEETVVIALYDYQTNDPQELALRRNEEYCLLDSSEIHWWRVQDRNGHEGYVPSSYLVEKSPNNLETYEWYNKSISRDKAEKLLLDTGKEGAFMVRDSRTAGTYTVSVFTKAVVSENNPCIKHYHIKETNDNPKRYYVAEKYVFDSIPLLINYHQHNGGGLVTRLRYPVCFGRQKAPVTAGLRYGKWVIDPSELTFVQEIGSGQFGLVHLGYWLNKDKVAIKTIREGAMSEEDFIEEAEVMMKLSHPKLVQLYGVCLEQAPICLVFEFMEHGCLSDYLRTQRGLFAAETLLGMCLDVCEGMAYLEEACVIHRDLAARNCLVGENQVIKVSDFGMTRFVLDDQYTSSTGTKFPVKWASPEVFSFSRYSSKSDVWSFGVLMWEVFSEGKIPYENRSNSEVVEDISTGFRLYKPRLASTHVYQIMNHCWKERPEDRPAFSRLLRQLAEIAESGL
Experimental: as §1

JAK3 = biological target: T3, JAK3 (Homo sapiens, UniProt P52333); assay: Inhibition of a panel of kinases, in vitro HotSpot kinase assay: JAK3; conditions: D-compounds panel data; 1 μM ATP; read-out: IC50 JAK3
T3 sequence (P52333 1-1124): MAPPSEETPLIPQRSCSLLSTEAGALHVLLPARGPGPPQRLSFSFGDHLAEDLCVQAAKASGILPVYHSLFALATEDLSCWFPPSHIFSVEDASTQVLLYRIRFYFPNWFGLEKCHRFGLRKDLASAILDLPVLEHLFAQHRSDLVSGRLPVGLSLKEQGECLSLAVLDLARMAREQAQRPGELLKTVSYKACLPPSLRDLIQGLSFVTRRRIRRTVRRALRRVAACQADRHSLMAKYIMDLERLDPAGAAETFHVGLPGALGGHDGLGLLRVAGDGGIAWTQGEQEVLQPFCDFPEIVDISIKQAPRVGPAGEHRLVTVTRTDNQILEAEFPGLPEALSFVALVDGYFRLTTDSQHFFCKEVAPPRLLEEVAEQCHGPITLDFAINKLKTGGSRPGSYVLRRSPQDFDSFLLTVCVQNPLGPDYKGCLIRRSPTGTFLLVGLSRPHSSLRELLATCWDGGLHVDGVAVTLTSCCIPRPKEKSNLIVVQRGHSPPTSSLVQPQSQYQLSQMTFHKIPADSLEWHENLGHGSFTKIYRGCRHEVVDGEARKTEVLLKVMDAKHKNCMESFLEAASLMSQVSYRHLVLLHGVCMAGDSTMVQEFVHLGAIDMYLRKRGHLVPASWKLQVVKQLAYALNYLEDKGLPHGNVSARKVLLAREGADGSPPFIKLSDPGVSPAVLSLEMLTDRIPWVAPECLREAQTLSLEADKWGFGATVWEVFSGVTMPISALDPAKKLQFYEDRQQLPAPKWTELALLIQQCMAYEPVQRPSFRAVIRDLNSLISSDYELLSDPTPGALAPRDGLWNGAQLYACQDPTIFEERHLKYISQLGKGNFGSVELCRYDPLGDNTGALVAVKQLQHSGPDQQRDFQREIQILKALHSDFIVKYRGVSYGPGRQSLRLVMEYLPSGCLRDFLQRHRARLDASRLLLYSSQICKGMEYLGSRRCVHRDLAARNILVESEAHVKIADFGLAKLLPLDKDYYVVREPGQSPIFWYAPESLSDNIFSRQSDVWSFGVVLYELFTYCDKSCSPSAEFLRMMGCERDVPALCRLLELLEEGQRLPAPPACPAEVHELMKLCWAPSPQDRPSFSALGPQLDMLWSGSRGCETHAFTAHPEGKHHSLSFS

Sequence of SRC (P12931 whole entry): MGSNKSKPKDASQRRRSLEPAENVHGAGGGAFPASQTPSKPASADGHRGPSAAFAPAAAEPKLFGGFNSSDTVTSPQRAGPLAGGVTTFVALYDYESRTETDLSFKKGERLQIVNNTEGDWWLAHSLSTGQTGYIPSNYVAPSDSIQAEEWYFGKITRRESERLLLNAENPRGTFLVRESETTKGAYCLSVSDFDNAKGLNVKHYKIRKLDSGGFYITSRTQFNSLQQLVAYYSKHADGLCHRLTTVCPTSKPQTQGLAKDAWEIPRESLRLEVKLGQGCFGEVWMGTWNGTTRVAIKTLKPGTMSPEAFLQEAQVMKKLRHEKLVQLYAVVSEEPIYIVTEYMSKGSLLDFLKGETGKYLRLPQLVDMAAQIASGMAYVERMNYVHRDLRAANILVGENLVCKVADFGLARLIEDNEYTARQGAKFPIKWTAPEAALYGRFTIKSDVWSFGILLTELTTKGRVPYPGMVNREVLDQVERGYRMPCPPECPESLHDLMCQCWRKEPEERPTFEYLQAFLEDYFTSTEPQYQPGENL
Sequence of EGFR (P00533 25-1210): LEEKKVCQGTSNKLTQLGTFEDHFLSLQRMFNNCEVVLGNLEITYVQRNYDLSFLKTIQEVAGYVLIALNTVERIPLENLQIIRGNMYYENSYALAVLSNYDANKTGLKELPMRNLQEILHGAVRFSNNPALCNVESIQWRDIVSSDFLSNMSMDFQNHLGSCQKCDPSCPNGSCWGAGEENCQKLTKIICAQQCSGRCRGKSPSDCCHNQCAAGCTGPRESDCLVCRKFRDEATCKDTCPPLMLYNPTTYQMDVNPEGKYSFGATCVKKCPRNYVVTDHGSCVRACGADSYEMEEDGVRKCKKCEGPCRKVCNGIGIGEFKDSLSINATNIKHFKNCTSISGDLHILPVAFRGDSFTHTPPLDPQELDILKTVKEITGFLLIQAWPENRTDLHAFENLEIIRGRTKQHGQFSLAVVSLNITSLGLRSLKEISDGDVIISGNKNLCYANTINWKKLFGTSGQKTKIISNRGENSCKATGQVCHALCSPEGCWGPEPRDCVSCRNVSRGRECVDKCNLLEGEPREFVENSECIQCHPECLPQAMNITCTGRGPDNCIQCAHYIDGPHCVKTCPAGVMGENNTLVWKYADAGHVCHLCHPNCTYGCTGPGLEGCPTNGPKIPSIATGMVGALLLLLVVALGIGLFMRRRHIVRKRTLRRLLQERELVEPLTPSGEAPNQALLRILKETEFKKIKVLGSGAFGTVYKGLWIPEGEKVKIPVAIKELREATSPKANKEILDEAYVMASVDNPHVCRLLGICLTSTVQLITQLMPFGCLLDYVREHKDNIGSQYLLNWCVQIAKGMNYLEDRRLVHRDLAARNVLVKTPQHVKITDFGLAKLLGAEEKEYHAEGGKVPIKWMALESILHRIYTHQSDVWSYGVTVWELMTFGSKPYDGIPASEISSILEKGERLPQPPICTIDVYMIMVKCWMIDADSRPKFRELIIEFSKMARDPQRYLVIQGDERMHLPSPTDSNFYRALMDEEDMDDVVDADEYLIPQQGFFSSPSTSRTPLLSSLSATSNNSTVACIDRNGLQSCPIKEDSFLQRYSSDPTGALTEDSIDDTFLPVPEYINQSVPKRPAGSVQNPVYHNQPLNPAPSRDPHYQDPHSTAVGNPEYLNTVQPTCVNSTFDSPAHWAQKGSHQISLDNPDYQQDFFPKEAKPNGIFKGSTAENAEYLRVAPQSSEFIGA

| SMILES | IC50 (SRC) [nM] | IC50 (TEC) [nM] | IC50 (EGFR) [nM] | IC50 (ITK) [nM] | IC50 (JAK3) [nM] |
| --- | --- | --- | --- | --- | --- |
| Cn1cc(Nc2nc(N3CCC[C@@H](NC(=O)c4ccc(C5CC5)cc4)C3)nnc2C(N)=O)cn1 [Example D-195, 3-[(3R)-3-(4-cyclopropylbenzamido)piperidin-1-yl]-5-[(1-methyl-1H-pyrazol-4-yl)amino]-1,2,4-triazine-6-carboxamide] | 100 to 1000 | 10 to 100 | > 10000 | 100 to 1000 | 1000 to 10000 |
| C[C@@H]1[C@H](NC(=O)c2ccc(N(C)C)cc2)CCCN1c1cnc(C(N)=O)c(Nc2ccc(N3CCN(C)CC3)cc2)n1 [Example D-196, 5-[(2R,3R)-3-[4-(dimethylamino)benzamido]-2-methylpiperidin-1-yl]-3-{[4-(4-methylpiperazin-1-yl)phenyl]amino}pyrazine-2-carboxamide] | 10 to 100 | 10 to 100 | 100 to 1000 | 10 to 100 | 100 to 1000 |
| CC(C)c1ccc(C(=O)N[C@@H]2CCCN(c3cnc(C(N)=O)c(Nc4cnn(C)c4)n3)[C@@H]2C)cc1 [Example D-197, 3-[(1-methyl-1H-pyrazol-4-yl)amino]-5-[(2R,3R)-2-methyl-3-[4-(propan-2-yl)benzamido]piperidin-1-yl]pyrazine-2-carboxamide] | 100 to 1000 | 10 to 100 | 1000 to 10000 | 100 to 1000 | 1000 to 10000 |
| C[C@@H]1[C@H](NC(=O)c2ncc(C3CC3)cn2)CCCN1c1cnc(C(N)=O)c(Nc2cnn(C)c2)n1 [Example D-198, 5-[(2R,3R)-3-(5-cyclopropylpyrimidine-2-amido)-2-methylpiperidin-1-yl]-3-[(1-methyl-1H-pyrazol-4-yl)amino]pyrazine-2-carboxamide] | 10 to 100 | 10 to 100 | 1000 to 10000 | 100 to 1000 | 100 to 1000 |
| C[C@@H]1[C@H](NC(=O)c2ccc(C3CC3)nc2)CCCN1c1cnc(C(N)=O)c(Nc2ccc(N3CCN(C)CC3)cc2)n1 [Example D-203, 5-[(2R,3R)-3-(6-cyclopropylpyridine-3-amido)-2-methylpiperidin-1-yl]-3-{[4-(4-methylpiperazin-1-yl)phenyl]amino}pyrazine-2-carboxamide] | 10 to 100 | ≤ 10 | 100 to 1000 | 10 to 100 | 1000 to 10000 |
| C[C@@H]1[C@H](NC(=O)c2cnc(C3CC3)cn2)CCCN1c1cnc(C(N)=O)c(Nc2cnn(C)c2)n1 [Example D-205, 5-[(2R,3R)-3-(5-cyclopropylpyrazine-2-amido)-2-methylpiperidin-1-yl]-3-[(1-methyl-1H-pyrazol-4-yl)amino]pyrazine-2-carboxamide] | 10 to 100 | ≤ 10 | 100 to 1000 | 100 to 1000 | 1000 to 10000 |
| Cn1cc(Nc2nc(N3CCC[C@@H](n4ccc5cc(C6CC6)ccc5c4=O)C3)nnc2C(N)=O)cn1 [Example D-206, 3-[(3R)-3-(6-cyclopropyl-1-oxo-1,2-dihydroisoquinolin-2-yl)piperidin-1-yl]-5-[(1-methyl-1H-pyrazol-4-yl)amino]-1,2,4-triazine-6-carboxamide] | 10 to 100 | ≤ 10 | 1000 to 10000 | 100 to 1000 | 1000 to 10000 |
| C[C@@H]1[C@H](NC(=O)c2ccc(C3CC3)cc2)CCCN1c1cnc(C(N)=O)c(Nc2cnn(C)c2)c1 [Example D-207, 5-[(2R,3R)-3-(4-cyclopropylbenzamido)-2-methylpiperidin-1-yl]-3-[(1-methyl-1H-pyrazol-4-yl)amino]pyridine-2-carboxamide] | 100 to 1000 | 100 to 1000 | > 10000 | 1000 to 10000 | 100 to 1000 |
| C[C@@H]1[C@H](NC(=O)c2ccc(C(C)(C)C)cn2)CCCN1c1cnc(C(N)=O)c(Nc2cnn(C)c2)n1 [Example D-208, 5-[(2R,3R)-3-(5-tert-butylpyridine-2-amido)-2-methylpiperidin-1-yl]-3-[(1-methyl-1H-pyrazol-4-yl)amino]pyrazine-2-carboxamide] | 10 to 100 | 10 to 100 | 1000 to 10000 | 100 to 1000 | 1000 to 10000 |
